Here are results for two compounds from the NIST ThermoML archive (doi:10.1021/je800557h).

In general, vapor or sublimation pressure refers to the equilibrium pressure above the liquid or solid.

The conditions of the data set: Liquid, Ebulliometric method (Recirculating still).

Numbers after ± are expanded uncertainties.

`O` [water]: the “vapor or sublimation pressure” value runs as follows: (298.15 K) 3.166 ± 0.054 kPa; (323.15 K) 12.35 ± 0.087 kPa.
Turning to `CC#N` [acetonitrile], the “vapor or sublimation pressure” value (323.15 K) is 33.86 ± 0.38 kPa.
